Consider three compounds from patent publication US7838527B2, “Methods of treating cancer and related methods” (Novartis Vaccines and Diagnostics, Inc., priority 2002, dated 2010).

The nature of series [1]: Plasma pharmacokinetics in KM12L4a tumor-bearing mice. In kind it is in vivo. The note with it: 300 mg/kg/day p.o.; Day 18; from 3 concentration-time pairs.
Series [2] relates to PC3 human prostate tumor.
The nature of series [3]: Compound 1 and metabolite levels in pooled rat plasma, 2 week toxicology study. In kind it is in vivo. The note with it: metabolites estimated by UV; for concentration at 0 h / concentration at 24 h: rat, plasma, po, read-out: Level in Rat Plasma.
Series [4] in a line: Metabolite profile in monkey plasma, multiple oral dose study. The series is classed as in vivo. To be noted: for level in plasma: compound 1 5 mg/kg BID oral (10 mg/kg/day), Day 1, metabolite estimated by UV.
Where [5] appears, read: 30 mg/kg, compound 1 30 mg/kg PO once a day, Day 1.
Where [6] appears, read: 100 mg/kg, compound 1 100 mg/kg PO once a day, Day 1.
[7] abbreviates: 100 mg/kg, compound 1 100 mg/kg PO once a day, Day 14.

Where two headings read alike, the source gives them in different places.

For the compound `CN1CCN(c2ccc3nc(-c4c(N)c5c(F)cccc5[nH]c4=O)[nH]c3c2)CC1` [Compound 1], the AUC – broadly, concentration integrated over time – in series [1] is 58400 ng·h/mL. In addition, the entries for the “% TGI vs. vehicle” value in series [2] (100 mpk q 2 days), in series [2] (100 mpk q 3 days) and in series [2] (100 mpk q 4 days) were 75%, 68% and 66%, respectively.

In the case of `C[N+]1([O-])CCN(c2ccc3nc(-c4c(N)c5c(F)cccc5[nH]c4=O)[nH]c3c2)CC1` [Compound 2, 4-amino-5-fluoro-3-[6-(4-methyl-4-oxidopiperazin-1-yl)-1H-benzimidazol-2-yl]quinolin-2(1H)-one], the values for the concentration at 0 h in series [3] (setting [5]), in series [3] (setting [6]) and in series [3] (setting [7]) were 0 ng/mL, 0 ng/mL and 67 ng/mL, respectively. In addition, the values for the concentration at 24 h in series [3] (setting [6]) and in series [3] (setting [7]) were 137 ng/mL and 102 ng/mL, respectively. In addition, the “detection of metabolite in plasma” value in series [4] (monkey, compound 1 5 mg/kg BID oral, day 1 and 14 samples) is reported as “not detected”.

For `Nc1c(-c2nc3ccc(N4CCNCC4)cc3[nH]2)c(=O)[nH]c2cccc(F)c12` [Compound 3, 4-amino-5-fluoro-3-[6-(piperazin-1-yl)-1H-benzimidazol-2-yl]quinolin-2(1H)-one], the “Level in Rat Plasma” value in series [3] (compound 1 30 mg/kg PO once a day, Day 1, 1-2 hr) was 14 ng/mL; in series [3] (compound 1 30 mg/kg PO once a day, Day 1, 4-8 hr), 48 ng/mL; in series [3] (compound 1 100 mg/kg PO once a day, Day 14, 1-2 hr), 17 ng/mL; in series [3] (compound 1 100 mg/kg PO once a day, Day 14, 4-8 hr), 19 ng/mL. Also, the concentration at 0 h is 0 ng/mL in series [3] (setting [5]), 0 ng/mL in series [3] (setting [6]) and 15 ng/mL in series [3] (setting [7]). In addition, the concentration at 24 h in series [3] (setting [6]) was 83 ng/mL; in series [3] (setting [7]), 10 ng/mL. Also, the level in plasma was 0 ng/mL in series [4] (pooled 0 hr); 8.5 ng/mL in series [4] (pooled 1, 2 hr); 31 ng/mL in series [4] (pooled 4, 8 hr); 10 ng/mL in series [4] (pooled 12, 13, 14, 16, 20, 24 hr).
